Several values for one entry are separate records, joined by “and”; a condition that tells them apart may be missing. Identical values can stand only once.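 Following 48 hours of exposure in 96-well plates, responses at five concentrations were used to interpolate endpoints linearly. Here, GI50 denotes the concentration required for 50% inhibition of growth. At the TGI there is no net growth.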
Assays:
Test in all cases: growth of human tumour cells (NCI), 48 h
KM20L2 colon = tested on: KM20L2 colon
M19-MEL melanoma = tested on: M19-MEL melanoma
HOP-18 NSCLC = tested on: HOP-18 NSCLC
SNB-78 CNS = tested on: SNB-78 CNS
DMS 114 small cell lung = tested on: DMS 114 small cell lung
XF 498 CNS = tested on: XF 498 CNS
DLD-1 colon = tested on: DLD-1 colon
RXF-631 renal = tested on: RXF-631 renal
MDA-N = tested on: MDA-N

Structure (SMILES) | TGI (KM20L2 colon) [µM] | TGI (M19-MEL melanoma) [µM] | TGI (HOP-18 NSCLC) [µM] | TGI (SNB-78 CNS) [µM] | TGI (DMS 114 small cell lung) [µM] | TGI (XF 498 CNS) [µM] | TGI (DLD-1 colon) [µM] | TGI (RXF-631 renal) [µM] | TGI (MDA-N) | GI50 (MDA-N) [µM] | GI50 (KM20L2 colon) [µM] | GI50 (M19-MEL melanoma) [µM] | GI50 (HOP-18 NSCLC) [µM] | GI50 (SNB-78 CNS) [µM] | GI50 (DMS 114 small cell lung) [µM] | GI50 (DLD-1 colon) [µM]
CCCCCCCCCCCCCCCCc1c(C(=O)OC)nc(NC#N)[nH]c1=O | > 25 | > 25 | > 25 | > 25 | > 25 | > 25 | > 25 | > 25 |  |  |  |  |  |  |  | 
C=CC12CCCCC1CC(C(=O)OC)=C(O)C2 (centres undefined) | > 100 | > 100 | > 100 | > 100 | > 100 | > 100 | > 100 | > 100 |  |  |  |  |  |  |  | 
CC(=O)OCC1OC(SC2=N/C(=C\c3ccc(Br)s3)C(=O)N2c2ccccc2)C(OC(C)=O)C(OC(C)=O)C1OC(C)=O (centres undefined) |  |  |  |  |  |  |  |  | > 100 µM |  |  |  |  |  |  | 
N#CC(Sc1ccccc1)C(N)=O (centres undefined) | > 100 | > 100 | > 100 | > 100 | > 100 | > 100 | > 100 | > 100 |  |  |  |  |  |  |  | 
CC(=O)O[C@@H]1c2c(c3c(=O)c4cccc(O)c4c(=O)c=3c2=[N+]=[N-])[C@H](OC(C)=O)[C@@H](OC(C)=O)[C@]1(C)O |  |  |  |  |  |  |  |  | 1.05 µM and 0.733 µM | 0.235 |  |  |  |  |  | 
CN1CCc2ccccc2C1Cc1ccccc1NC(=O)c1sc2ccccc2c1Cl (centres undefined) |  |  |  |  |  |  |  |  | > 100 µM |  |  |  |  |  |  | 
CC1OC(n2cc(F)c(=O)[nH]c2=O)CCC1=O (centres undefined) | > 100 | > 100 | > 100 | > 100 | > 100 |  | > 100 | > 100 |  |  |  |  |  |  |  | 
c1cc[c]([Ge]([O]c2cccc3cccnc23)([c]2ccccc2)[c]2ccccc2)cc1 | 5.97 | 12.1 | 8.37 | 17.7 | 5.06 |  | 11.3 |  |  |  | 2.59 | 3.46 | 1.26 | 4.34 | 2.32 | 3.22
O=CCCn1[nH]c(=O)ccc1=O | > 100 | > 100 |  | > 100 | > 100 |  | > 100 |  |  |  |  |  |  |  |  | 
O=S1Nc2cccc(C(F)(F)F)c2S1 (centres undefined) | > 100 | > 100 | > 100 | > 100 | 83.2 | 98.7 | > 100 |  |  |  |  |  |  |  |  | 
O=CN/C=C/c1ccccc1 | > 100 | > 100 | > 100 | > 100 |  |  | > 100 | > 100 |  |  |  |  |  |  |  | 
C=CCCn1nc(-c2ccccc2)oc1=O | > 100 | > 100 | > 100 | > 100 |  | > 100 | > 100 |  |  |  |  |  |  |  |  | 
CC1(C)C(=O)/C=C\C(=O)C(C)(C)C2=CC=C(O2)C(C)(C)C(=O)C(Br)C(Br)C(=O)C(C)(C)C2=CC=C1O2 (centres undefined) | > 100 | > 100 | > 100 | > 100 | > 31.6 | > 100 | 87.2 | > 100 | > 100 µM |  |  |  |  |  |  | 
O=C1CCCc2ccc([N+](=O)[O-])c(O)c21 | > 100 | > 100 |  | > 100 | > 100 |  | > 100 |  |  |  |  |  |  |  |  | 
C[C@@H]1CC[C@@]2(C)OC(c3ccccc3)[C@H](CO)N2C1=O (some centres undefined) | > 100 | > 100 | > 100 | > 100 | > 100 | > 100 | > 100 |  |  |  |  |  |  |  |  | 
COc1ccc2cc3c4cc(OC)c(OC)cc4ccn3c2c1 |  | > 100 | > 100 | > 100 | > 100 | > 100 | > 100 |  |  |  |  |  |  |  |  | 
O/N=C1/CCCC/C1=C\c1ccc(Cl)c(Cl)c1 | 43.4 | > 100 | 59.8 | 70.5 | 59.8 | 46.4 | > 100 |  |  |  |  |  |  |  |  | 
COc1ccc(/C=C/c2onc3c(=O)n(C)nc(-c4ccccc4)c23)cc1 | > 100 | > 100 | > 100 |  | > 100 | > 100 | > 100 |  |  |  |  |  |  |  |  | 
NC1=NN(c2ccccc2)C(=O)C1C(=O)C(=O)Nc1ccccc1 (centres undefined) | > 100 | > 100 | > 100 | > 100 | > 100 | > 100 | > 100 |  |  |  |  |  |  |  |  | 
O=C(O)c1cnc2c(ccc3[nH]cccc32)c1=O | > 100 | > 100 | > 100 | > 100 | > 100 |  | > 100 |  |  |  |  |  |  |  |  | 
CCNCC(=O)Nc1ccc2c(c1)C(=O)c1ccc(NC(=O)CNCC)cc1C2=O |  |  |  |  |  |  |  |  | 18.9 µM |  |  |  |  |  |  | 
CCOC(=O)C1CC(=O)C=C2CCCCC21 (centres undefined) |  | > 100 |  | > 100 | > 100 | > 100 | > 100 | > 100 |  |  |  |  |  |  |  | 
Nc1nc(-c2cccnc2)cc(-c2cc(-c3cccnc3)nc(N)n2)n1 |  |  |  |  |  |  |  |  | > 100 µM |  |  |  |  |  |  | 
CC(=O)N1c2ccccc2N(C(C)=O)C1c1ccc(C2N(C(C)=O)c3ccccc3N2C(C)=O)[nH]1 | > 100 | > 100 |  |  | > 100 | > 100 |  | > 100 |  |  |  |  |  |  |  | 
CCOC(=O)NC(=O)c1cn(CCSCCOC(=O)NCCCCCCNC(=O)OCCSCCn2cc(C(=O)NC(=O)OCC)c(=O)n(C)c2=O)c(=O)n(C)c1=O | > 100 | 51.3 | 1.02 | > 100 |  | 85.4 | > 100 | 64 |  |  |  |  |  |  |  | 
Cn1cnc([N+](=O)[O-])c1Sc1n[nH]c(-c2ccc(Cl)cc2)n1 |  | 47.7 | 8.3 | 70.7 | 49.7 | 27.6 | 52.5 | 59 |  |  |  |  |  |  |  | 
COc1ccc(C2(Cl)C(Cl)(C(F)(F)F)C2(Cl)C(F)(F)F)cc1 (centres undefined) | 28.9 | 26.5 | 28.6 | 29.7 | 25 | 25.5 | 29.4 | 30.3 |  |  |  |  |  |  |  | 

From PubChem BioAssay (NCI)
